We go through one substance from US20020110601A1, “Antineoplastic platinum therapeutic method and composition” (priority 2000, published 2002).

The conditions of data set [1]: in vivo, iv; cited from earlier work.
Data set [2] deals with malignant pleural mesothelioma. The data set can be described thus: Intrapleural administration in malignant pleural mesothelioma: indwelling catheter versus needle. Details: species or system human. The settings on record: in vivo. The protocol:
The first cycle of platinum drug by the present invention was administered 7 days after a baseline thoracoscopy. […] The starting fluid volume infused was 225 ml. Dosages of up to about 450 mg/M^2 are useful, but the empirical end point is compromised respiration such as shortness of breath. […] Repeated administrations were given every 3 to 4 weeks with attention to the presence or absence of a draining pleural effusion without loculation or (adhesions). That is a loculation surrounding the catheter entry must be broken u or carefully drained at the time of additional drug introduction to avoid hydrostatic pressure increases. […] If the fluid was still draining through the indwelling catheter, the patient received a third treatment seven days after the this thoracoscopy. […] While the course of treatment is within the skill of the medical professional with a view to the presenting condition of each patient, some initial parameters are noted. Intrapleural infusion is usefully held between consecutive cycles until the absolute granulocyte count is >1,500/mm^3 and platelets >100,000/mm^3 and complete recovery of non-hematological toxicities.

Data set [3] has as its system malignant pleural effusions. The settings on record: human, in vivo.
Method: A Phase I trial using the procedures of the present invention employed L-NDDP administered by intrapleural administration in patients with malignant pleural effusions.
Therapy began with a starting dose was 75 mg/m^2. […] Four patients were treated at the highest tested dose of 550 mg/m^2.

Take “liposomal-cis-bis-neodecanoato-trans-R,R-1,2-diaminocyclohexane platinum (II) [L-NDDP]”: in data set [1], the dose limiting toxicity entry was “myelosuppression”. Besides, in data set [2], the extravasation and sepsis result was “avoided extravasation and sepsis”. In addition, in data set [3], the local pain result is given as “no local pain”; the toxicity result was “mild nausea and vomiting”. The systemic toxicity entry in data set [3] (iv) is on record as “No systemic toxicity”.
